PMC7982426 (Acta Pharmaceutica Sinica. B, 2020)
pEC50: −log10 of the molar value.

Biological target: G protein-coupled receptor 35 (GPR35) (Homo sapiens, UniProt Q9HC97)
Assay: GPR35 internalization by flow cytometry in NCM460 cells
Assay type: cell-based

G protein-coupled receptor 35 (GPR35), sequence (Q9HC97 whole entry): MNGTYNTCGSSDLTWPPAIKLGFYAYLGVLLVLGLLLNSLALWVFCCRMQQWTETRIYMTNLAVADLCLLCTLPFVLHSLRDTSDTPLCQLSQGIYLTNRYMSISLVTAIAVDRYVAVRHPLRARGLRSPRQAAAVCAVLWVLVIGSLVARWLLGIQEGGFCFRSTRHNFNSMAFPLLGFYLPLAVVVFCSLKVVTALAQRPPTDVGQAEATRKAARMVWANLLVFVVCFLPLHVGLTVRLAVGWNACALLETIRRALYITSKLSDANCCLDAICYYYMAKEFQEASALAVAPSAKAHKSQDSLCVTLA

- pEC50: 4.34
Compound: O=C(O)c1cc(=O)c2ccccc2[nH]1 [KA, kynurenic acid]
